Here are results for 31 compounds from patent publication US6268478A, “Intracellular vitamin D binding protein” (Cedars-Sinai Medical Center, priority 1997, dated 2001).

This assay deals with IDBP (Saguinus oedipus, UniProt Q9N1U2). In words: Competitive displacement of [3H]25-OHD3 from IDBP in unfractionated 100,000×g supernatant extracts of B95-8 cells (competitive protein binding assay, dextran-coated charcoal). More on the design: post-nuclear 100,000xg supernatant of B95-8 marmoset lymphoblasts and partly purified column fractions; species or system Callithrix jacchus (common marmoset). Particulars: for competition of non-vitamin D steroids and bioactive lipids with 25-OHD3 for binding: crude post-nuclear / 100,000×g supernatant extracts of B95-8 cells; for RBI (Relative Binding Index): relative ability of maximally effective concentration to displace [3H]25-OHD3, 25-OHD3 assigned 100, unfractionated 100,000×g supernatant of B95-8 cells; for ability to competitively displace [3H]25-OHD3 binding (FIG. 1A): 100 nM competitor, 2 nM [3H]25-OHD3; for binding / displacement of [3H]25-OHD3 by vitamin D2 metabolites and synthetic analogues (FIG. 2B): unfractionated B95-8 extracts, 4 nM [3H]25-OHD3. The text has this:
Culture and Extraction of B95-8 Cells. The B-lymphoblastoid cell line B95-8 was obtained from the American Type Culture Collection (ATCC, Manassas, Va.). This cell line was established by EBV transformation of blood leukocytes from the vitamin D-resistant new world primate, Callithrix jacchus (common marmoset). The cell line was maintained in RPMI-1640 medium (Irvine Scientific, Irvine, Calif.) routinely supplemented with 10% fetal calf serum (FCS; Gemini BioProducts, Calabasas, Calif.), 100 units/ml penicillin, 100 μg/ml streptomycin, 2 mM L-glutamine (both from Gibco-BRL, Grand Island, N.Y.) in an atmosphere of 95% air-5% CO2.
Confluent cultures were harvested by agitation to dislodge clumps of lymphoblasts that were weakly adherent to the plastic flask. Harvested cells were pelleted and washed twice in ice cold phosphate-buffered saline (PBS; 20 mM Na2 HPO4 and 150 mM NaCl, pH 7.2). The pelleted cells were then resuspended in ETD buffer (1 mM EDTA, 10 mM Tris-HCl, 5 mM dithiothreitol, pH 7.4) containing 1 mM phenylmethylsulfonylflouride and homogenized by Polytron on ice in five 15-second bursts. Nuclei with associated nuclear steroid receptor proteins, were pelleted at 4,000×g for 30 minutes at 4° C. The post-nuclear supernatant of this spin was then subjected to high-speed centrifugation at 100,000×g for 1 hour at 4° C. The resulting "100,000×g supernatant" was either aliquoted and stored at […] for further study, used in competitive ligand binding analyses, or subjected to further purification as described below in Example II.
Ligand Binding Analyses. The ability of the unfractionated 100,000×g supernatant extracts of B95-8 cells and individual column […] of increasing concentrations of radioinert compounds (see Table I) was performed by competitive protein binding assay as previously described in Gacad et al. Bone Min. Res. 8:27-35 (1993).
[…] […] […] […] The binding assay conditions were the same as those stated above except that specific binding was determined in ETD-0.3 M Na2 HPO4 buffer (pH 6.8).

IDBP, sequence (Q9N1U2 whole entry): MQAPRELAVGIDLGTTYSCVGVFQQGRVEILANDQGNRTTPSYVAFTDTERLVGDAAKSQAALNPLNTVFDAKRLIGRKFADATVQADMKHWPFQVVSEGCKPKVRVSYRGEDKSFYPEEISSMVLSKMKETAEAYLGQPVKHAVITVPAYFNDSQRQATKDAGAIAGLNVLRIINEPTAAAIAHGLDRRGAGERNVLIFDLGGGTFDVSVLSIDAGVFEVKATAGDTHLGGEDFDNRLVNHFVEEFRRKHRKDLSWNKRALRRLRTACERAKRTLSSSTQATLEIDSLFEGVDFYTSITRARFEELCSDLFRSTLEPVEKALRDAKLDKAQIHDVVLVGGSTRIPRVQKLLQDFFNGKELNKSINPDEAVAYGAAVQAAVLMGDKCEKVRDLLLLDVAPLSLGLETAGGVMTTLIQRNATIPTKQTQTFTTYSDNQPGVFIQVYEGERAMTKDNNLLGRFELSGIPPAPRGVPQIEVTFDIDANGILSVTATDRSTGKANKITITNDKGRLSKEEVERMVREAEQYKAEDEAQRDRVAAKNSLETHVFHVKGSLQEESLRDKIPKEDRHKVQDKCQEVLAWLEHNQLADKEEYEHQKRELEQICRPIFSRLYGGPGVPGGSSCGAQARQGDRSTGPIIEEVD

Regarding `CC(=O)[C@H]1CC[C@H]2[C@@H]3CCC4=CC(=O)CC[C@]4(C)[C@H]3CC[C@]12C` [Progesterone], the “competition of non-vitamin D steroids and bioactive lipids with 25-OHD3 for binding” value is “competitively displaces [^3 H]25-OHD3”; the “RBI (Relative Binding Index)” value was 19. As for `C[C@]12CCC(=O)C=C1CC[C@@H]1[C@@H]2[C@@H](O)C[C@@]2(C)[C@H]1CC[C@]2(O)C(=O)CO` [Hydrocortisone], the “RBI (Relative Binding Index)” value came out at 0.

As for `C[C@]12CCC(=O)C=C1CC[C@@H]1[C@@H]2CC[C@]2(C)C(=O)CC[C@@H]12` [Androstendione], the “RBI (Relative Binding Index)” value came out at 0.

As to `CC(=O)[C@H]1CC[C@H]2[C@@H]3CC=C4C[C@@H](O)CC[C@]4(C)[C@H]3CC[C@]12C` [Pregnenolone], the “RBI (Relative Binding Index)” value is on record as 0. The same measure, in the same setting: the result for `CC(C)CCC[C@@H](C)[C@H]1CC[C@H]2C3=CC=C4C[C@@H](O)CC[C@]4(C)[C@H]3CC[C@]12C` [7-Dehydrocholesterol] reads 0; that for `C=C1CC[C@H](O)C/C1=C/C=C1\CCC[C@]2(C)[C@@H]([C@H](C)/C=C/[C@H](C)C(C)C)CC[C@@H]12` [Vitamin D2, ergocalciferol], 0; that for `CCCCC/C=C\C/C=C\C/C=C\C/C=C\CCCC(=O)O` [Arachidonic acid], 0.

For `CCCCC[C@H](O)/C=C/[C@H]1[C@H](O)CC(=O)[C@@H]1C/C=C\CCCC(=O)O` [PGE2], the “RBI (Relative Binding Index)” value amounted to 0.

Regarding `CC1=C(/C=C/C(C)=C/C=C/C(C)=C/C(=O)O)C(C)(C)CCC1` [All-trans Retinoic acid], the “RBI (Relative Binding Index)” value is given as 0. With `C=C1/C(=C\C=C2/CCC[C@]3(C)[C@@H]([C@H](C)CCCC(C)C)CC[C@@H]23)C[C@@H](O)C[C@@H]1O` [1-OHD3], the “ability to competitively displace [3H]25-OHD3 binding (FIG. 1A)” value (shortened to “ability to competitively displace”) is “incapable of displacing [^3 H]25-OHD3” and the “RBI (Relative Binding Index)” value is 0. `CC(C)CCC[C@@H](C)[C@H]1CC[C@H]2[C@@H]3CC=C4C[C@@H](O)CC[C@]4(C)[C@H]3CC[C@]12C` [Cholesterol]: the “RBI (Relative Binding Index)” value is 0. As for `C[C@]12CCC(=O)C[C@@H]1CC[C@@H]1[C@@H]2CC[C@]2(C)[C@@H](O)CC[C@@H]12` [5-Dihydroxytestosterone], the “competition of non-vitamin D steroids and bioactive lipids with 25-OHD3 for binding” value is reported as “none of the six steroid precursor molecules, glucocorticoids, mineralocorticoids, or the major intracellular metabolite of testosterone, 5-dihydrotestosterone, were capable ligands”; the “RBI (Relative Binding Index)” value is reported as 0. Take `C=C1/C(=C\C=C2/CCC[C@]3(C)[C@@H]([C@@H](C)OCCCC(O)(CC)CC)CC[C@@H]23)C[C@@H](O)C[C@@H]1O` [KH1060]: the “RBI (Relative Binding Index)” value came to 0; the “binding / displacement of [3H]25-OHD3 by vitamin D2 metabolites and synthetic analogues (FIG. 2B)” value was “none of the C-1-hydroxylated nonhypercalcemic analogues MC903, EB1089 and KH1060 (FIG. 2A) were able to displace [^3 H]25-OHD3 binding”. As for `C[C@]12CC[C@H]3[C@@H](CCC4=CC(=O)CC[C@@]43C)[C@@H]1CC[C@@H]2O` [Testosterone], the “competition of non-vitamin D steroids and bioactive lipids with 25-OHD3 for binding” value was “competitively displaces [^3 H]25-OHD3”; the “RBI (Relative Binding Index)” value amounted to 30. With Androstendiol, the “RBI (Relative Binding Index)” value turned out to be 0. With `C[C@]12CCC(=O)C=C1CC[C@@H]1[C@@H]2C(=O)C[C@@]2(C)[C@H]1CC[C@]2(O)C(=O)CO` [Cortisone], the “RBI (Relative Binding Index)” value worked out at 0. Turning to `C=C1/C(=C\C=C2/CCC[C@]3(C)[C@@H]([C@H](C)/C=C/[C@H](C)C(C)(C)O)CC[C@@H]23)C[C@@H](O)C[C@@H]1O` [1,25-(OH)2D2, 1,25-dihydroxyvitamin D2], the “RBI (Relative Binding Index)” value was 35; the “binding / displacement of [3H]25-OHD3 by vitamin D2 metabolites and synthetic analogues (FIG. 2B)” value was “bound in unfractionated extracts equivalently to 25-OHD3 and 1,25-(OH)^2 D3”. For `C[C@]12CC[C@H]3[C@@H](CCC4=CC(=O)CC[C@@]43C)[C@@H]1CC[C@@H]2C(=O)CO` [Deoxycorticosterone (DOC), Deoxycorticosterone], the “RBI (Relative Binding Index)” value is given as 0. The same measure, in the same setting: the result for `CC#C[C@]1(O)CC[C@H]2[C@@H]3CCC4=CC(=O)CCC4=C3[C@@H](c3ccc(N(C)C)cc3)C[C@@]21C` [RU486] reads 0. As to `C=C1/C(=C\C=C2/CCC[C@]3(C)[C@@H]([C@H](C)CCC(O)C(C)(C)O)CC[C@@H]23)C[C@@H](O)CC1O` (stereo partly shown) [1,24,25-(OH)3D3], the “ability to competitively displace” value is recorded as “significantly decreased effective competitive binding” and the “RBI (Relative Binding Index)” value is 36. Moreover, the “displacement of 25-OHD3” value (competitor at 10^-7 M, 0.1 µM) was determined as 20%. For the same compound, the “displacement of 25-OHD3 at lower concentrations” value (competitor concentrations below 10^-7 M) is reported as “no apparent displacement at lower concentrations”. Consider `C[C@]12CC[C@@H]3c4ccc(O)cc4CC[C@H]3[C@@H]1CC[C@@H]2O` [17β-Estradiol], for which the “competition of non-vitamin D steroids and bioactive lipids with 25-OHD3 for binding” value is “competitively displaces [^3 H]25-OHD3”; the “RBI (Relative Binding Index)” value is 33.

In the case of `C=C1CC[C@H](O)C/C1=C/C=C1\CCC[C@]2(C)[C@@H]([C@H](C)CCC(O)C(C)(C)O)CC[C@@H]12` (stereo partly shown) [24,25-(OH)2D3], the “ability to competitively displace” value is recorded as “roughly equivalent in their ability to competitively inhibit” and the “RBI (Relative Binding Index)” value amounted to 72. The like results for `C=C1CC[C@H](O)C/C1=C/C=C1\CCC[C@]2(C)[C@@H]([C@H](C)CCCC(C)(O)CO)CC[C@@H]12` (stereo partly shown) [25,26-(OH)2D3] were, in that order, “roughly equivalent in their ability to competitively inhibit” and 70. `C[C@]12CCC(=O)C=C1CC[C@@H]1[C@@H]2[C@@H](O)C[C@]2(C=O)[C@@H](C(=O)CO)CC[C@@H]12` [Aldosterone]: the “RBI (Relative Binding Index)” value amounted to 0.

As to `CC1=C(/C=C/C(C)=C\C=C\C(C)=C\C(=O)O)C(C)(C)CCC1` [9-cis Retinoic acid], the “RBI (Relative Binding Index)” value amounted to 0.

Turning to `C=C1/C(=C\C=C2/CCC[C@]3(C)[C@@H]([C@H](C)/C=C/C=C/C(O)(CC)CC)CC[C@@H]23)C[C@@H](O)C[C@@H]1O` [EB1089], the “RBI (Relative Binding Index)” value was found to be 0; the “binding / displacement of [3H]25-OHD3 by vitamin D2 metabolites and synthetic analogues (FIG. 2B)” value was “none of the C-1-hydroxylated nonhypercalcemic analogues MC903, EB1089 and KH1060 (FIG. 2A) were able to displace [^3 H]25-OHD3 binding”.

For the compound `C[C@H](CCCC(C)(C)O)[C@H]1CC[C@H]2[C@@H]3CC=C4C[C@@H](O)CC[C@]4(C)[C@H]3CC[C@]12C` [25-Hydroxycholesterol], the “competition of non-vitamin D steroids and bioactive lipids with 25-OHD3 for binding” value is “none of these evaluated compounds were able to compete with 25-OHD3 for binding”; the “RBI (Relative Binding Index)” value turned out to be 0. `C=C1CC[C@H](O)C/C1=C/C=C1\CCC[C@]2(C)[C@@H]([C@H](C)CCCC(C)C)CC[C@@H]12` [Vltamin D3, cholecalciferol]: the “ability to competitively displace” value was “ineffective as a competitive ligand” and the “RBI (Relative Binding Index)” value came out at 0.

Consider `C[C@]12C[C@H](O)[C@H]3[C@@H](CCC4=CC(=O)CC[C@@]43C)[C@@H]1CC[C@@H]2C(=O)CO` [Corticosterone (B), Corticosterone], for which the “RBI (Relative Binding Index)” value was 0.

`C[C@]12CC[C@H](OS(=O)(=O)O)CC1=CC[C@@H]1[C@@H]2CC[C@]2(C)C(=O)CC[C@@H]12` [DHEAS]: the “RBI (Relative Binding Index)” value is given as 0. The same measure, in the same setting: with `CC/C(=C(\c1ccccc1)c1ccc(OCCN(C)C)cc1)c1ccccc1` [Tamoxifen] the figure was 0.
